This note sets out measurements from PubChem BioAssay (NCI).

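Tested at 5 concentrations; 48 h exposure; 96-well plates; endpoints linearly interpolated, else capped at highest concentration. The concentration for 50% growth inhibition is given as GI50. Definition used: TGI = concentration required for complete inhibition of growth.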

Some test systems named below: TK-10 renal; IGROV1 ovarian; HS 578T breast; BT-549 breast; ACHN renal; MDA-MB-231 breast; CAKI-1 renal; CCRF-CEM leukemia; KM12 colon; SW-620 colon.
Assay in all cases: NCI anticancer screen, dose series, 48 h

Take `CCCCCC/C=C1\CCC(CN(C)C)C1=O` (stereo not given): the TGI in the assay with TK-10 renal was found to be 9.14 µM; with IGROV1 ovarian, 26.5 µM; with HS 578T breast, 40.3 µM; with BT-549 breast, 53.1 µM; with ACHN renal, 22.2 µM; in the assay with MDA-MB-231 breast, 18 µM. Moreover, the TGI was determined as 9.51 µM in the assay on CAKI-1 renal, 7.21 µM with CCRF-CEM leukemia, 6.68 µM with KM12 colon and 6.49 µM with SW-620 colon.
Regarding `C/C(=C\c1ccn(-c2ccc(N)cc2F)n1)[C@@H]1C[C@@H]2O[C@]2(C)CCC[C@H](C)[C@H](O)[C@@H](C)C(=O)C(C)(C)[C@@H](O)CC(=O)O1`, the GI50 is 0.0939 µM in the assay on TK-10 renal; 0.0448 µM with IGROV1 ovarian; 0.0606 µM in the assay on HS 578T breast; 0.0943 µM in the assay on BT-549 breast; 0.202 µM in the assay with ACHN renal; 0.132 µM in the assay with MDA-MB-231 breast. Besides, the GI50 in the assay with CAKI-1 renal is 0.123 µM; in the assay with CCRF-CEM leukemia, 0.0197 µM; in the assay on KM12 colon it was 0.0156 µM; in the assay on SW-620 colon, 0.0212 µM. Besides, the TGI was more than 50 µM in the assay on TK-10 renal; more than 50 µM in the assay on IGROV1 ovarian; more than 16.6 µM in the assay with HS 578T breast; more than 50 µM with BT-549 breast; more than 50 µM in the assay on ACHN renal; more than 50 µM in the assay with MDA-MB-231 breast. Further, the TGI in the assay with CAKI-1 renal, in the assay on CCRF-CEM leukemia, in the assay on KM12 colon and with SW-620 colon was more than 50 µM in each case.
Consider `O=C(O)c1ccccc1Nc1ccc2nnc(-c3ccncc3)n2n1`, for which the GI50 is 7.13 µM in the assay with TK-10 renal; 5.29 µM in the assay on IGROV1 ovarian; 18.3 µM in the assay with HS 578T breast; 2.59 µM in the assay with BT-549 breast; 4.24 µM with ACHN renal; 5.27 µM in the assay with MDA-MB-231 breast. The GI50 is 3.22 µM with CAKI-1 renal, 4.28 µM in the assay with CCRF-CEM leukemia, 7.34 µM in the assay on KM12 colon and 6.48 µM in the assay with SW-620 colon. The TGI in the assay with TK-10 renal stood at 25 µM; in the assay on IGROV1 ovarian, 22.9 µM; in the assay with HS 578T breast it was 53.9 µM; with BT-549 breast, 8.33 µM; in the assay on ACHN renal, 17.4 µM; in the assay with MDA-MB-231 breast it was 24.2 µM. The TGI with CAKI-1 renal is 11.7 µM; with CCRF-CEM leukemia, more than 100 µM; in the assay with KM12 colon, 23.9 µM; with SW-620 colon, 36 µM.
As to `N#Cc1nn(-c2cc(=O)[nH]c3ccc(Br)cc23)c(N)c1C#N`, the GI50 in the assay with TK-10 renal was more than 100 µM; in the assay with IGROV1 ovarian, 37.9 µM; in the assay with HS 578T breast, 64.9 µM; in the assay on BT-549 breast it was more than 100 µM; in the assay on ACHN renal, more than 100 µM; in the assay with MDA-MB-231 breast, more than 100 µM. For the same compound, the GI50 in the assay with CAKI-1 renal, with CCRF-CEM leukemia, in the assay with KM12 colon and in the assay on SW-620 colon was more than 100 µM in each case. For the same compound, the TGI in the assay with TK-10 renal, in the assay on IGROV1 ovarian, in the assay on HS 578T breast, in the assay on BT-549 breast, in the assay on ACHN renal and in the assay with MDA-MB-231 breast was more than 100 µM each time. Also, the TGI in the assay with CAKI-1 renal, in the assay on CCRF-CEM leukemia, in the assay on KM12 colon and in the assay on SW-620 colon was more than 100 µM each time.
In the case of `COc1cc(N2CCC(N3CCN(C)CC3)CC2)ccc1Nc1ncc(Cl)c(Nc2ccccc2S(=O)(=O)C(C)C)n1`, the GI50 with TK-10 renal is 0.79 µM; in the assay with IGROV1 ovarian, 1.39 µM; in the assay with HS 578T breast, 1.35 µM; in the assay with BT-549 breast, 2.09 µM; in the assay on ACHN renal, 0.76 µM; with MDA-MB-231 breast it was 0.705 µM. Further, the GI50 with CAKI-1 renal was 0.65 µM; with CCRF-CEM leukemia it was 0.424 µM; in the assay on KM12 colon, 0.352 µM; in the assay on SW-620 colon, 0.337 µM. The TGI with TK-10 renal worked out at 2.43 µM; in the assay on IGROV1 ovarian, 9.2 µM; in the assay on HS 578T breast it was 5.07 µM; in the assay on BT-549 breast it was 5.6 µM; with ACHN renal, 2.61 µM; in the assay on MDA-MB-231 breast, 2.43 µM. For the same compound, the TGI in the assay with CAKI-1 renal turned out to be 6.51 µM; in the assay with CCRF-CEM leukemia, 5.86 µM; with KM12 colon it was 3.48 µM; in the assay with SW-620 colon, 2.52 µM.
Regarding `O=S(=O)(Nc1ccccn1)c1ccc(N=Nc2ccc(O)c3ncccc23)cc1`, the GI50 in the assay on TK-10 renal is 2.82 µM; in the assay with IGROV1 ovarian it was 1.35 µM; in the assay with HS 578T breast, 1.06 µM; with BT-549 breast it was 1.25 µM; with ACHN renal, 0.976 µM; in the assay with MDA-MB-231 breast, 1.11 µM. The GI50 with CAKI-1 renal was 0.441 µM; in the assay on CCRF-CEM leukemia it was 1.21 µM; in the assay on KM12 colon, 1.17 µM; in the assay with SW-620 colon, 0.952 µM. Further, the TGI with TK-10 renal was determined as 7.31 µM; in the assay with IGROV1 ovarian it was 16.5 µM; with HS 578T breast, 8.86 µM; with BT-549 breast, 7.04 µM; in the assay on ACHN renal it was 9.64 µM; with MDA-MB-231 breast, 6.03 µM. The TGI is 4.56 µM in the assay with CAKI-1 renal, more than 95.2 µM in the assay with CCRF-CEM leukemia, 15 µM with KM12 colon and 25.5 µM in the assay with SW-620 colon.
On to `COc1cc(C)c(NC(=O)CN(C)C)cc1Nc1nc(Nc2cccc(F)c2C(N)=O)c2cc[nH]c2n1`, for which the GI50 in the assay with TK-10 renal is 1.93 µM; with IGROV1 ovarian, 1.91 µM; in the assay with HS 578T breast, 3.08 µM; in the assay with BT-549 breast, 4.35 µM; in the assay with ACHN renal, 3.81 µM; in the assay on MDA-MB-231 breast it was 2.66 µM. Moreover, the GI50 with CAKI-1 renal is 3.68 µM; in the assay on CCRF-CEM leukemia it was 0.403 µM; with KM12 colon, 0.524 µM; in the assay on SW-620 colon, 0.168 µM. For the same compound, the TGI in the assay with TK-10 renal is 5.55 µM; in the assay with IGROV1 ovarian, 5.81 µM; in the assay on HS 578T breast, 10.2 µM; in the assay with BT-549 breast, 18.9 µM; in the assay with ACHN renal, 7.35 µM; in the assay on MDA-MB-231 breast, 6.72 µM. Moreover, the TGI was determined as 9.95 µM with CAKI-1 renal, 4.88 µM in the assay with CCRF-CEM leukemia, 1.92 µM in the assay with KM12 colon and 3.49 µM in the assay on SW-620 colon.
